Reference: patent publication US8304443B2, “Indazole derivatives” (Asahi Kasei Pharma Corporation, priority 2008, dated 2012)
Where two headings read alike, the source gives them in different places.

Columns and labels:
[1] = target: T1, human β3 adrenergic receptor (Homo sapiens, UniProt P13945); test: Test example 1-B: human β3 adrenergic receptor agonist activity (cAMP-Screen, 96-well); assay type: cell-based; details: for Emax: 0.5 h, read-out: β3 receptor I.A.; for EC50: CHO cells with human β3 gene, cAMP
T1 construct: used as a probe to obtain the full length human β3 gene from a human genomic library (Clonetech); expressed in transfected cells; host or cells: CHO (Chinese hamster ovary) cells, pcDNA3, geneticin-selected
Protocol: Human β3 adrenergic receptor agonist activity is determined using CHO (Chinese hamster ovary) cells transfected with pcDNA3 (Invitrogen) to which human β3 gene has been inserted. […] This human β3 cDNA fragment is used as a probe to obtain the full length human β3 gene from a human genomic library (Clonetech). The above cells are cultured in a Ham's F-12 medium containing 10% fetal bovine serum and 400 μg/mL geneticin (Invitrogen). After seeding these cells into a 96-well plate (2×10^4 cells/well) and culturing them for about 20 hours, they are allowed to stand in a serum-free Ham's F-12 medium (80 μL) for 15 minutes. The test compound is first dissolved in DMSO, serially diluted with Ham's F-12 comprising 100 mmol/L HEPES and 1 mmol/L isobutylmethylxanthine, and then 20 μL of the solution is added to the cells. After the cells are cultured for 30 minutes, the medium is removed, followed by addition of assay/lysis buffer (0.1 ml) included in cAMP-Screen Kit (manufactured by Applied Biosystems). The cells are incubated for 30 minutes at 37° C. The resulting cell lysate is determined to cAMP quantitation by using cAMP-Screen kit described above.

[2] = target: T2, human α1A adrenergic receptor (Homo sapiens, UniProt P35348); test: Test example 4: human α1A adrenergic receptor agonist activity (Ca flux, Fura-2); assay type: cell-based; details: Test example 4, maximum response to norephinephrine taken as 100%; for Emax: read-out: α1A receptor I.A.
T2 construct: expressed in transfected cells; host or cells: HEK293 cells, pcDNA3.1(−), geneticin-selected
T2 sequence (P35348 1-466): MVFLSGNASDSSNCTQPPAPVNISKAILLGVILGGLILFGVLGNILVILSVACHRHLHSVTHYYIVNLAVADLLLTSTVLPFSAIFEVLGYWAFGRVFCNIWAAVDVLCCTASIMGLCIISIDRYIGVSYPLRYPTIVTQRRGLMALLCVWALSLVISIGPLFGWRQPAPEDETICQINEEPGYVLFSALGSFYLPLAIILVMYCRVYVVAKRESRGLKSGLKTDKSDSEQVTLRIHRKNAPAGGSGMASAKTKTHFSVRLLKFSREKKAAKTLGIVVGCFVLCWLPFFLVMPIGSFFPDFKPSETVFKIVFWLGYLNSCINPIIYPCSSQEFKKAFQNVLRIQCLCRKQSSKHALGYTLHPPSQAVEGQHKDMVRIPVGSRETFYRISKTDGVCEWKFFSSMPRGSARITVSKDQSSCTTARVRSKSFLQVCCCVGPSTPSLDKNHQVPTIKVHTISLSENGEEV
Protocol: Human α1A adrenergic receptor agonist activity is determined by using HEK293 cells transfected with pcDNA3.1(−) (Invitrogen) to which human α1A gene has been inserted. These cells are cultured in a DMEM medium containing 10% fetal bovine serum, 400 μg/mL geneticin (Gibco BRL), 100 U/ml penicillin and 100 μg/ml streptomycin. […] After carrying out the loading for 30 minutes in a CO2 incubator, excess Fura-2AM is removed by washing the cells twice with the assay buffer. The cells obtained after the centrifuge is prepared to 5×10^6 cells/ml by using the assay buffer, and aliquoted into a 96-well UV plate (manufactured by Corning Inc.) to give a cell plate (80 μl/well). […] After the measurement for about 30 seconds, 20 μl of the test sample from the sample plate is added to the cell plate and the measurement is continued for another 270 seconds. Ca flux caused by the test compound is obtained from the peak height difference between the maximum value of fluorescence intensity ratio at 340 nm and 380 nm after the addition of the test compound and the fluorescence intensity ratio before the addition of the test compound. Maximum response to norephinephrine as a positive control is taken as 100%, and the maximum response ratio of each test compound is obtained as Intrinsic Activity [I.A. (%)].

[3] = target: T3, human β1 adrenergic receptor (Homo sapiens, UniProt P08588); test: Test example 2-B: human β1 adrenergic receptor agonist activity; assay type: cell-based; details: 0.5 h; read-out: β1 receptor I.A.
T3 construct: expressed in transfected cells; host or cells: CHO (Chinese hamster ovary) cells, pcDNA3

[4] = target: T4, human β2 adrenergic receptor (Homo sapiens, UniProt P07550); test: Test example 3-B: human β2 adrenergic receptor agonist activity; assay type: cell-based; details: read-out: β2 receptor I.A.
T4 construct: expressed in transfected cells; host or cells: CHO (Chinese hamster ovary) cells, pcDNA3

[5] = tested on: rat under pentobarbital anesthesia; test: Test example 9: effect on blood pressure and heart rate of a rat under pentobarbital anesthesia; assay type: in vivo; details: male SD rat, 3 mg/kg intravenous bolus; greatest change of mean blood pressure relative to before administration; mean ± standard deviation
Protocol: After measuring blood pressure and heart rate of a rat under pentobarbital anesthesia, an effect of intravenous bolus administration of a test compound on blood pressure and heart rate can be determined. To a male SD rat (Japan SLC Inc.), sodium pentobarbital (Tokyo Chemical Industry Co., Ltd.) is intraperitoneally administered for induction of anesthesia (50 mg/kg). As maintenance anesthetics, sodium pentobarbital is subcutaneously administered (25 mg/kg). Left femoral vein is exposed and stripped, and then a polyethylene tube SP10 (connected to a three-way stopcock via ¼ vein needle) which has been filled with physiological saline is inserted and left in the vein.
Left medial femoral region is cut to expose and strip the femoral artery, and then a polyethylene tube (SP31, connected to a three-way stopcock via 22 G injection needle by TERUMO Corporation) which has been filled with heparin physiological saline is inserted and connected to a pressure transducer. Blood pressure is measured from the pressure transducer by using a modified pressure amplifier (AP-641 G, Nihon Kohden Corporation). Heart rate is measured by using the Heart rate Counter (AT-601 g, Nihon Kohden Corporation) while having the pulse wave of the blood pressure as a trigger. The blood pressure, mean blood pressure and heart rate are transmitted to the data recorder for recordation. In addition, the mean blood pressure is recorded using a modified pressure amplifier (AP-641 G) according to the equation of {diastolic blood pressure+(systolic blood pressure−diastolic blood pressure)/3}.
Blood pressure and heart rate measurement is started, and after confirming that each value remains almost constant, the test compound (3 mg/kg) is administered to the left femoral vein for 30 seconds. Specifically, the test compound with 3 mg/mL concentration is bolus administered at the administration dose of 1 mL/kg. Relative value (%) at each time point compared to the mean blood pressure and the heart rate before the administration is obtained for each individual. […]

[6] = tested on: urinary bladder smooth muscle isolated from common marmoset; test: Test example 7: relaxant activity on urinary bladder smooth muscle isolated from common marmoset; details: strips contracted by 40 mmol/L KCl, papaverine 10^−4 mol/L relaxation = 100%
Protocol: Specifically, a common marmoset (CLEA Japan, Inc.) is bled to exsanguinated death, and then the urinary bladder is taken out of the marmoset via laparotomy. […] A resting tension of 1 g is applied to the strips, which is then equilibrated for more than 30 minutes. […] The final concentration is 10^−9, 10^−8, 10^−7, 10^−8, 10^−5 and 10^−4 mol/L. Upon the completion of the relaxation response to the test compound at the highest concentration, papaverine with final concentration of 10^−4 mol/L is added and the maximum relaxation response is obtained for each strip. This relaxation response is taken as 100%, and the relaxation ratio (%) is obtained for the test compound at the concentrations of 10^−5 and 10^−4 mol/L.

[7] = target: T1, human β3 adrenergic receptor; test: Test example 1-A: human β3 adrenergic receptor agonist activity (cAMP EIA, 24-well); assay type: cell-based; details: Table 3, maximum response to isoproterenol taken as 100%
Protocol: Human β3 adrenergic receptor agonist activity is determined using CHO (Chinese hamster ovary) cells transfected with pcDNA3 (Invitrogen) to which human β3 gene has been inserted. […] This human β3 cDNA fragment is used as a probe to obtain the full length human β3 gene from a human genomic library (Clonetech). The above cells are cultured in a Ham's F-12 medium containing 10% fetal bovine serum and 400 μg/mL geneticin (Invitrogen).

T3 sequence (P08588 whole entry): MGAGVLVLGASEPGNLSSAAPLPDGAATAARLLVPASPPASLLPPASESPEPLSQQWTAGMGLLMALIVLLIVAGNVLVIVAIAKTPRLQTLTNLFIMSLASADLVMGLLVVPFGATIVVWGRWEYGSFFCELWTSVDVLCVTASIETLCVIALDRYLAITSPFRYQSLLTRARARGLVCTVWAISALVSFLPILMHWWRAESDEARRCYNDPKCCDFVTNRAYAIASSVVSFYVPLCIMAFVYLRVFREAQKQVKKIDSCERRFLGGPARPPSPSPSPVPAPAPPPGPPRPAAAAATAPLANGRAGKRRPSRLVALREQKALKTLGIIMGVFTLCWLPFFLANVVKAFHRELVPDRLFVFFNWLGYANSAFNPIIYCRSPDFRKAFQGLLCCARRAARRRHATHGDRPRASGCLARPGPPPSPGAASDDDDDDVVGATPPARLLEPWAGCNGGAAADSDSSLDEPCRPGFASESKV
T4 sequence (P07550 whole entry): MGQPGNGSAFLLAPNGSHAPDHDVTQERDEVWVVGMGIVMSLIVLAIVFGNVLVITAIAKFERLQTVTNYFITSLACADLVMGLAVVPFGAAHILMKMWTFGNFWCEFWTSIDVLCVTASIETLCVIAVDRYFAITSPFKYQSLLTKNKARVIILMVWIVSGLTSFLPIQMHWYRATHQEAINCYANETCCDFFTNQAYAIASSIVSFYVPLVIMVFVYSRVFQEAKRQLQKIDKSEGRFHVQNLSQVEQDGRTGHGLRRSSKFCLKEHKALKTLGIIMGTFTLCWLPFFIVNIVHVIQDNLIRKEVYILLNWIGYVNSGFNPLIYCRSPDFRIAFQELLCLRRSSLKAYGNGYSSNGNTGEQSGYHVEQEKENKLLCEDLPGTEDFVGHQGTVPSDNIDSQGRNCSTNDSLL
T1 sequence (P13945 whole entry): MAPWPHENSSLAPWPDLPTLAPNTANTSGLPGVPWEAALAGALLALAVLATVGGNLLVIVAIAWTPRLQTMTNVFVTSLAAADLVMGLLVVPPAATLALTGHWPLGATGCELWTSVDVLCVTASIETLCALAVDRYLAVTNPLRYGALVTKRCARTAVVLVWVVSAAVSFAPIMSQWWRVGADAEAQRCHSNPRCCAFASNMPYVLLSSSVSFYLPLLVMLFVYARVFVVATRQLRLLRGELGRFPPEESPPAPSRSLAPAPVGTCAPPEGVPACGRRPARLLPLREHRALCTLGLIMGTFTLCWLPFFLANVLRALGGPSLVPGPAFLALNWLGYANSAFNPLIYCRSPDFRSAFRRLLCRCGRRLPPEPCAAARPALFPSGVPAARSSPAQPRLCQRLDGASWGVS

Compound | Emax [1] | EC50 ([1]; Table 4, Test example 1-B) | Emax ([2]; Table 4) | Emax [3] | Emax [4] | Emax ([2]; Table 3) | α1A receptor I.A. ([2]; Table 4) | β3 receptor I.A. ([1]; Table 4, Test example 1-B, maximum response to isoproterenol taken as 100%) | β3 receptor I.A. [7] | increase in MBP (%) [5] | relaxant activity (%) 10^−4 M ([6]; 10^−4 M) | relaxant activity (%) 10^−5 M ([6]; 10^−5 M)
NC[C@H](O)c1ccc(O)c(O)c1 [Norepinephrine, reference compound] |  |  |  |  |  | 100% | 100% |  |  |  |  | 
CS(=O)(=O)Nc1cc([C@@H](O)CNCCOc2ccc3c(C4CC4)n[nH]c3c2)ccc1F [Example 4, (R)—N-(5-(2-(2-(3-Cyclopropylindazol-6-yloxy)ethylamino)-1-hydroxyethyl)-2-fluorophenyl)methanesulfonamide] | 52% | 24 nM | 0% | 9% | 8% |  |  |  |  |  |  | 
CS(=O)(=O)Nc1cc([C@@H](O)CNCCOc2ccc3c(C4CCC4)n[nH]c3c2)ccc1F [Example 6, (R)—N-(5-(2-(2-(3-Cyclobutylindazol-6-yloxy)ethylamino)-1-hydroxyethyl)-2-fluorophenyl)methanesulfonamide] | 41% | 54 nM | 0% |  |  |  |  |  |  |  |  | 
COC(C)c1n[nH]c2cc(OCCNC[C@H](O)c3cccc(NS(C)(=O)=O)c3)ccc12 (stereo partly drawn) [Example 3, N-(3-((R)-1-Hydroxy-2-(2-(3-(1-methoxyethyl)-indazol-6-yloxy)ethylamino)ethyl)phenyl)methanesulfonamide] | 60% | 45 nM | 15% | 4% | 5% |  |  |  |  | 2.3 ± 0.9% |  | 
CC(C)NCC(O)c1ccc(O)c(O)c1 (centres unmarked) [isoproterenol, reference compound] |  |  |  |  |  |  |  | 100% | 100% |  | 66.2% | 60.9%

More lines, main results first:

Emax [1] | EC50 ([1]; Table 4, Test example 1-B) | Emax ([2]; Table 4) | Emax [3] | Emax [4] | Emax ([2]; Table 3) | α1A receptor I.A. ([2]; Table 4) | β3 receptor I.A. ([1]; Table 4, Test example 1-B, maximum response to isoproterenol taken as 100%) | β3 receptor I.A. [7] | Compound | increase in MBP (%) [5] | relaxant activity (%) 10^−4 M ([6]; 10^−4 M) | relaxant activity (%) 10^−5 M ([6]; 10^−5 M)
59% | 19 nM | 0% | 23% | 9% |  |  |  |  | CS(=O)(=O)Nc1cc([C@@H](O)CNCCOc2ccc3c(C4CC4)n[nH]c3c2)ccc1Cl [Example 5, (R)—N-(2-Chloro-5-(2-(2-(3-cyclopropylindazol-6-yloxy)ethylamino)-1-hydroxyethyl)phenyl)methanesulfonamide] |  |  | 
51% | 56 nM | 5% | 30% | 1% |  |  |  |  | CS(=O)(=O)Nc1cc([C@@H](O)CNCCOc2ccc3c(OC(F)F)n[nH]c3c2)ccc1Cl [Example 9, (R)—N-(2-Chloro-5-(2-(2-(3-(difluoromethoxy)-indazol-6-yloxy)ethylamino)-1-hydroxyethyl)phenyl)methanesulfonamide] |  |  | 
51% | 584 nM | 5% |  |  |  |  |  |  | CS(=O)(=O)Nc1cc([C@@H](O)CNCCOc2ccc3c(OC(F)F)n[nH]c3c2)ccc1F [Example 7, (R)—N-(5-(2-(2-(3-(Difluoromethoxy)-indazol-6-yloxy)ethylamino)-1-hydroxyethyl)-2-fluorophenyl)methanesulfonamide] |  |  | 
70% | 29 nM | 0% | 34% | 10% |  |  |  |  | CS(=O)(=O)Nc1cc([C@@H](O)CNCCOc2ccc3c(C4CCC4)n[nH]c3c2)ccc1Cl [Example 8, (R)—N-(2-Chloro-5-(2-(2-(3-cyclobutylindazol-6-yloxy)ethylamino)-1-hydroxyethyl)phenyl)methanesulfonamide] |  |  | 
